Read-outs that look alike come from different tables or passages of the source.
Key:
[1] = In vitro microsomal stability, rat; format: in vitro ADME
[2] = system: Isogenic HCT-116 colon cancer cell lines; experiment: cells; format: cell-based;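 further: cells grown in 96-well plates in McCoy's 5A medium with 10% FBS, exposed to compound for 4 days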
Experimental: Cells were seeded in 96-well flat bottom cell culture plates at a density of 2−3×10^3 cells/well with compounds and incubated for 4 days.

[3] = system: cancer cell lines with wild-type p53 / mutated or deleted p53 (ATCC); experiment: Cell growth assay (WST-8), other cancer cell lines; format: cell-based
[4] = target: recombinant human His-tagged MDM2 protein (residues 1-118) (Homo sapiens (Human), UniProt Q00987); experiment: Fluorescence-polarization MDM2 binding assay;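 further: fluorescence polarization read after three hours of incubation in potassium phosphate buffer containing bovine gamma globulin and Triton X-100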
[5] = Homo sapiens, HCT-116, read-out: HCT-116 (p53-/-) IC50, Table 19A, HCT-116 p53-/-, cell growth
[6] = Homo sapiens, HCT-116, read-out: HCT-116 (p53 wild-type) IC50, Table 19A, HCT-116 p53 wild-type, cell growth
[7] = Homo sapiens, LNCaP, Table 19A, LNCAP cells, p53 wild-type, cell growth, read-out: LNCAP (p53 wild-type) IC50
[8] = Homo sapiens, PC-3, Table 19A, PC-3 cells, deleted p53, cell growth, read-out: PC-3 (deleted p53) IC50
[9] = Table 19A, FP binding assay, read-out: MDM2 IC50
[10] = Homo sapiens, HCT-116, read-out: Inhibition of cell growth IC50, HCT116 p53 KO, Table 19B, HCT116 p53 KO
[11] = Homo sapiens, HCT-116, read-out: Inhibition of cell growth IC50, HCT116 p53 WT, Table 19B, HCT116 p53 WT
[12] = Homo sapiens, LNCaP, Table 19B, LNCaP cells, read-out: Inhibition of cell growth IC50, LNCaP
[13] = Homo sapiens, PC-3, Table 19B, PC3 cells, read-out: Inhibition of cell growth IC50, PC3
[14] = Table 19B, read-out: Binding affinities to MDM2 protein as determined by FP based assay IC50

Chain of recombinant human His-tagged MDM2 protein (residues 1-118) (Q00987 1-118): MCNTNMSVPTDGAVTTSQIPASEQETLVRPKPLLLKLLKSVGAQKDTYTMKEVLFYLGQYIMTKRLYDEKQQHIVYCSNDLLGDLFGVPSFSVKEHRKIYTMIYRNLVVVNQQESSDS

SMILES | IC50 [4, 9] | IC50 [2, 10] | IC50 [2, 11] | IC50 [3, 12] | IC50 [3, 13] | IC50 [4, 14] | other results
CN1CCN(CCCNC(=O)[C@@H]2N[C@H](CC(C)(C)C)[C@]3(C(=O)Nc4cc(Cl)c(F)cc43)[C@H]2c2cccc(Cl)c2)CC1 [MI-751] | < 1 µM | – | – | – | – | – | % of compound remaining when incubated in rat liver microsomes ([1]; Table 17, 0 min): 100%; % of compound remaining when incubated in rat liver microsomes ([1]; Table 17, 4 min): 83.1%; % of compound remaining when incubated in rat liver microsomes ([1]; Table 17, 6 min): 62.9%; % of compound remaining when incubated in rat liver microsomes ([1]; Table 17, 10 min): 50.1%; % of compound remaining when incubated in rat liver microsomes ([1]; Table 17, 15 min): 41.6%; % of compound remaining when incubated in rat liver microsomes ([1]; Table 17, 30 min): 31.1%; IC50 [2, 5]: 6.2 ± 1.2 µM; IC50 [2, 6]: 1 ± 0.2 µM; IC50 [3, 7]: 0.7 ± 0.2 µM; IC50 [3, 8]: 3.9 ± 0.9 µM
CC(C)(C)C[C@H]1N[C@@H](C(=O)NCC2CC(O)C(O)C2)[C@H](c2cccc(Cl)c2)[C@@]12C(=O)Nc1cc(Cl)c(F)cc12 (stereo partly shown) [MI-519-37] | < 1 µM | – | – | – | – | – | IC50 ([2]; read-out: HCT-116 (p53-/-) IC50, Table 19A, HCT-116 p53-/-, cell growth): 14.9 ± 2 µM; IC50 ([2]; read-out: HCT-116 (p53 wild-type) IC50, Table 19A, HCT-116 p53 wild-type, cell growth): 1 ± 0.5 µM; IC50 ([3]; Table 19A, LNCAP cells, p53 wild-type, cell growth, read-out: LNCAP (p53 wild-type) IC50): 0.6 ± 0.1 µM; IC50 ([3]; Table 19A, PC-3 cells, deleted p53, cell growth, read-out: PC-3 (deleted p53) IC50): 14 ± 2.2 µM
CC(C)(C)C[C@H]1N[C@@H](C(=O)NCC[C@H](O)C=O)[C@H](c2cccc(Cl)c2)[C@@]12C(=O)Nc1cc(Cl)c(F)cc12 [MI-219-M1 (a)] | < 1 µM | – | – | – | – | – | IC50 [2, 5]: > 10 µM; IC50 [2, 6]: < 3 µM; IC50 [3, 7]: < 3 µM; IC50 [3, 8]: > 10 µM
O=C(NCC[C@H](O)CO)[C@@H]1N[C@H](CCc2ccco2)[C@]2(C(=O)Nc3cc(Cl)c(F)cc32)[C@H]1c1cccc(Cl)c1 [MI-715B] | – | > 10 µM | 2.7 ± 1 µM | 3 ± 0.7 µM | > 10 µM | < 5 µM | –
CC(C)(C)C[C@@H]1[C@]2(C(=O)Nc3cc(Cl)c(F)cc32)[C@@H](c2cccc(Cl)c2)[C@H](C(=O)NCC[C@H](O)CO)[N+]1(C)C [MI-719] | – | > 100 µM | 58.6 ± 14.9 µM | 51.2 µM | > 100 µM | > 10 µM | –
CC(C)(C)C[C@H]1N[C@@H](C(=O)NCCC2CCC(O)C2)[C@H](c2cccc(Cl)c2F)[C@@]12C(=O)Nc1cc(Cl)ccc12 (stereo partly shown) [MI-755] | – | > 10 µM | < 3 µM | < 3 µM | > 10 µM | < 1 µM | –
CC(C)(C)C[C@H]1N[C@@H](C(=O)NC2CCC(NS(=O)(=O)C(F)(F)F)CC2)[C@H](c2cccc(Cl)c2)[C@@]12C(=O)Nc1cc(Cl)c(F)cc12 (stereo partly shown) [MI-777] | < 5 µM | – | – | – | – | – | IC50 [2, 5]: 7.8 µM; IC50 [2, 6]: 8.9 µM; IC50 [3, 7]: 6.6 µM; IC50 ([3]; Homo sapiens, SJSA-1, Table 19A, SJSA-1 cells, p53 wild-type, cell growth, read-out: SJSA-1 (p53 wild-type) IC50): 9.2 µM
CN1CCC(CNC(=O)[C@@H]2N[C@H](CC(C)(C)C)[C@]3(C(=O)Nc4cc(Cl)ccc43)[C@H]2c2cccc(Cl)c2F)CC1 [MI-519-53-1] | – | – | – | – | – | – | IC50 ([2]; Homo sapiens, HCT-116, read-out: HCT116p53KO IC50, Table 19D, HCT116 p53KO): > 3 µM; IC50 ([2]; Homo sapiens, HCT-116, read-out: HCT116p53WT IC50, Table 19D, HCT116 p53WT): < 1 µM; IC50 ([3]; Homo sapiens, LNCaP, Table 19D, LNCaP cells, read-out: LNCaP IC50): < 1 µM; IC50 ([3]; Homo sapiens, PC-3, Table 19D, PC3 cells, read-out: PC3 IC50): > 3 µM; IC50 ([3]; Homo sapiens, Table 19D, SJSA-1 cells, unit inferred, read-out: SJSA-1): < 1 µM; IC50 ([4]; Table 19D, read-out: MDM2 Binding Affinities IC50): < 1 µM
CC(C)CC(C)(C)C[C@H]1N(C)[C@@H](C(=O)NCC[C@H](O)CO)[C@H](c2cccc(Cl)c2F)[C@@]12C(=O)Nc1cc(F)c(F)cc12 [MI-734] | – | 8.2 ± 3.5 µM | 5.5 ± 2.1 µM | 3.7 ± 1.1 µM | 7.4 ± 1.8 µM | > 5 µM | –
CC(C)(CCO)C[C@H]1N[C@@H](C(=O)NCC[C@H](O)CO)[C@H](c2cccc(Cl)c2)[C@@]12C(=O)Nc1cc(Cl)c(F)cc12 [MI-319-36] | – | – | – | – | – | – | IC50 ([2]; Homo sapiens, HCT-116, read-out: Cell growth inhibition using WST assay, HCT116 p53KO IC50, Table 19C, HCT116 p53KO): > 30 µM; IC50 ([2]; Homo sapiens, HCT-116, read-out: Cell growth inhibition using WST assay, HCT116 p53WT IC50, Table 19C, HCT116 p53WT): 12.2 ± 1.7 µM; IC50 ([3]; Homo sapiens, LNCaP, Table 19C, LNCaP cells, read-out: Cell growth inhibition using WST assay, LNCaP IC50): 6.4 ± 1.4 µM; IC50 ([3]; Homo sapiens, PC-3, Table 19C, PC3 cells, read-out: Cell growth inhibition using WST assay, PC3 IC50): > 30 µM; IC50 ([4]; Table 19C, read-out: Bidning affinities to MDM2 as determined using FP assay IC50): < 5 µM
O=C(NCC[C@H](O)CO)[C@@H]1N[C@H](CCCc2cccs2)[C@]2(C(=O)Nc3cc(Cl)c(F)cc32)[C@H]1c1cccc(Cl)c1 [MI-710] | – | 12.4 ± 1.2 µM | 1.3 ± 0.3 µM | 1.2 ± 0.2 µM | 12.4 ± 1.9 µM | > 1 µM | –
CC(C)CC[C@H]1N[C@@H](C(=O)NCC[C@H](O)CO)[C@H](c2cccc(Cl)c2)[C@@]12C(=O)Nc1cc(Cl)c(F)cc12 [MI-705] | – | 32 ± 33.3 µM | 4.4 ± 4 µM | 1.4 ± 0.8 µM | 43.9 ± 31.7 µM | < 10 µM | –

— patent US9079913B2, “Spiro-oxindole MDM2 antagonists” (The Regents of the University of Michigan, priority 2009, dated 2015)
